This note sets out measurements from patent publication US11959909B2, “Basal ganglia-on-chip for screening therapeutic agents for brain and nervous system diseases” (priority 2018, dated 2024).

This experiment has as its system dopaminergic neurons. Nature of the experiment: Drug screening on Parkinson's disease-like basal ganglia-on-a-chip model (6-OHDA induced). The format is cell-based. Particulars: 50 μM L-dopa after Parkinson's disease-like model established with 100 μM 6-OHDA. An excerpt: In order to fabricate a basal ganglia-on-a-chip, SH-SY5Y (ATCC CRL-2266) was used as dopaminergic neurons, and F3-NG1 (provided from professor Hong-Joon Lee at Chung-Ang University) were allowed to differentiate and then used as GABAergic neurons and glutamatergic neurons. Parkinson's disease is caused by the gradual loss of dopaminergic neurons distributed in the substantia nigra. 6-Hydroxydopamine (6-OHDA) causes oxidative stress to induce mitochondrial migration of c-Jun N-terminal kinase (JNK), and the activated JNK after mitochondrial migration causes mitochondrial dysfunction, contributing to apoptosis of dopaminergic neurons, occurring in Parkinson's disease. Based on this, a Parkinson's disease model was developed using 100 μM 6-OHDA.

Each structure is given as a SMILES string. “Also recorded” adds a separate entry of the source.

For `N[C@@H](Cc1ccc(O)c(O)c1)C(=O)O` [L-dopa, L-3,4-dihydroxyphenylalanine], the “proliferation of dopaminergic neurons” value is recorded as “increase in the proliferation of dopaminergic neurons; also recorded: proliferation of dopaminergic neurons was confirmed”.
